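Briefly, cells in 96-well plates were exposed to five compound concentrations for 48 h, and endpoints were estimated by linear interpolation. GI50 is the concentration that inhibits growth by half.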 Active and inactive are the calls of the source. Cut-off read from the data, not from the text of the source: active = GI50 up to about 1.1 µM and inactive = higher.
Experiments:
Experiment in all cases: NCI-60 cell line screen, 48 h
BT-549 = system: BT-549
HCT-15 = system: HCT-15
MDA-MB-231 = system: MDA-MB-231
MCF7 = system: MCF7
MOLT-4 = system: MOLT-4
RXF 393 = system: RXF 393
K562 = system: K562
CCRF-CEM = system: CCRF-CEM
OVCAR-8 = system: OVCAR-8
UO-31 = system: UO-31
SR = system: SR
OVCAR-5 = system: OVCAR-5
A549 = system: A549
EKVX = system: EKVX
SK-MEL-5 = system: SK-MEL-5
HT-29 = system: HT-29
Malme-3M = system: Malme-3M
786-0 = system: 786-0
LOX IMVI = system: LOX IMVI
SK-MEL-2 = system: SK-MEL-2

SMILES	GI50 (BT-549)	GI50 (HCT-15) [µM]	GI50 (MDA-MB-231)	GI50 (MCF7)	GI50 (MOLT-4)	GI50 (RXF 393)	GI50 (K562)	GI50 (CCRF-CEM)	GI50 (OVCAR-8)	GI50 (UO-31)	GI50 (SR)	GI50 (OVCAR-5)	GI50 (A549)	GI50 (EKVX)	GI50 (SK-MEL-5)	GI50 (HT-29)	GI50 (Malme-3M)	GI50 (786-0)	GI50 (LOX IMVI)	GI50 (SK-MEL-2)
N[C@H](C(=O)O)[C@@H]1CC(Br)=NO1	> 27 µM (inactive)	6.38	> 100 µM (inactive)	3.42 µM (inactive)	22.6 µM (inactive)	11.9 µM (inactive)	20.6 µM (inactive)	14.1 µM (inactive)	> 25 µM (inactive)	6.46 µM (inactive)	3.66 µM (inactive)	16.8 µM (inactive)	3.66 µM (inactive)	10.9 µM (inactive)	14.5 µM (inactive)	10.1 µM (inactive)	> 25.1 µM (inactive)	13 µM (inactive)	> 100 µM (inactive)	> 91.8 µM (inactive)
Cc1cc2c(cc1C)[n+]([O-])c(C(=O)/C=C/c1ccccc1[N+](=O)[O-])c(C)[n+]2[O-]	> 81.8 µM (inactive)	73.8	> 65.5 µM (inactive)	> 46.5 µM (inactive)	> 100 µM (inactive)	37.4 µM (inactive)	> 100 µM (inactive)	> 100 µM (inactive)	61.5 µM (inactive)	99.5 µM (inactive)	55.6 µM (inactive)	> 100 µM (inactive)	> 80.9 µM (inactive)	58.2 µM (inactive)	> 100 µM (inactive)	> 92.3 µM (inactive)	57 µM (inactive)	33 µM (inactive)	71.1 µM (inactive)	41 µM (inactive)
O=C1c2cc(Cl)ccc2N=C(NCCCl)C2CSCN12 (stereo not given)	> 100 µM (inactive)	> 100	> 100 µM (inactive)	> 100 µM (inactive)	> 100 µM (inactive)	> 100 µM (inactive)	70.1 µM (inactive)	78.7 µM (inactive)	> 100 µM (inactive)	> 100 µM (inactive)	52.8 µM (inactive)	> 100 µM (inactive)	> 100 µM (inactive)	> 100 µM (inactive)	> 100 µM (inactive)	> 100 µM (inactive)	> 100 µM (inactive)	> 100 µM (inactive)	> 100 µM (inactive)	> 100 µM (inactive)
CN(CCCN1CCCC1)CCCN(C)C(=O)Cc1ccc(Cl)c(Cl)c1	18.6 µM (inactive)	26.1	12.6 µM (inactive)	16.6 µM (inactive)	13.2 µM (inactive)	12.2 µM (inactive)	5.75 µM (inactive)	6.85 µM (inactive)	30 µM (inactive)	4.69 µM (inactive)	11.9 µM (inactive)	29.4 µM (inactive)	18.6 µM (inactive)	24.1 µM (inactive)	15.3 µM (inactive)	3.77 µM (inactive)	18.3 µM (inactive)	13.4 µM (inactive)	12.7 µM (inactive)	13.5 µM (inactive)
C[C@]12CC[C@@H]3c4ccc(OC(=O)c5ccccc5)cc4CC[C@H]3[C@@H]1CCC2OC(=O)c1cccc2c(=O)c3ccccc3[nH]c12 (stereo not given in full)	18.2 µM (inactive)	13.1	20.8 µM (inactive)	12.2 µM (inactive)	63 µM (inactive)	14.4 µM (inactive)	60 µM (inactive)	24.7 µM (inactive)	18.3 µM (inactive)	27.6 µM (inactive)	25.8 µM (inactive)	18.2 µM (inactive)	14.2 µM (inactive)	9.38 µM (inactive)	24.1 µM (inactive)	7.21 µM (inactive)	24.5 µM (inactive)	17.5 µM (inactive)	16.3 µM (inactive)	14.1 µM (inactive)
O=C(c1ccco1)N1CCN(C(=O)c2ccco2)C1=S	8.47 µM (inactive)	6.24	11.6 µM (inactive)	2.99 µM (inactive)	1.42 µM (inactive)	2.88 µM (inactive)	1.87 µM (inactive)	1.77 µM (inactive)	11 µM (inactive)	3.68 µM (inactive)	1.79 µM (inactive)	20.3 µM (inactive)	7.74 µM (inactive)	16.1 µM (inactive)	10.1 µM (inactive)	8.05 µM (inactive)	6.07 µM (inactive)	3.28 µM (inactive)	3.59 µM (inactive)	13 µM (inactive)
Cc1coc2c1C(=O)C(=O)c1c-2ccc2c1CCCC2(C)C [TANSHINONE IIA]	2.1 µM (inactive)	0.673	21.8 µM (inactive)	2.18 µM (inactive)	3.18 µM (inactive)	5.12 µM (inactive)	0.875 µM (active)	7.52 µM (inactive)	6.35 µM (inactive)	2.33 µM (inactive)	0.757 µM (active)	9.42 µM (inactive)	1.48 µM (inactive)	30.3 µM (inactive)	0.213 µM (active)	10.5 µM (inactive)	0.508 µM (active)	1.87 µM (inactive)	0.342 µM (active)	2.28 µM (inactive)
c1ccc2c(c1)ccc1cc3cc(NCCCCNc4ccc5nc6c(ccc7ccccc76)cc5c4)ccc3nc12	2 µM (inactive)	0.701	0.154 µM (active)	0.262 µM (active)	0.184 µM (active)	1.58 µM (inactive)	1.63 µM (inactive)	0.427 µM (active)	0.167 µM (active)	1.21 µM (inactive)	0.0179 µM (active)	0.261 µM (active)	1.51 µM (inactive)	2.03 µM (inactive)	1.32 µM (inactive)	2.61 µM (inactive)	1.55 µM (inactive)	0.291 µM (active)	1.71 µM (inactive)	1.91 µM (inactive)
CC[C@]1(Cc2ccc(OC)c(OC)c2)C=[N+]([O-])O[C@H](OC2CCCC2(c2ccccc2)c2ccccc2)[C@@H]1OC(C)=O (stereo not given in full)	8.47 µM (inactive)	3.37	11 µM (inactive)	2.43 µM (inactive)	2.67 µM (inactive)	1.52 µM (inactive)	2.98 µM (inactive)	4.1 µM (inactive)	2.67 µM (inactive)	3.12 µM (inactive)	2.79 µM (inactive)	16.7 µM (inactive)	3.54 µM (inactive)	5.89 µM (inactive)	3.55 µM (inactive)	1.98 µM (inactive)	2.03 µM (inactive)	1.6 µM (inactive)	2 µM (inactive)	4.62 µM (inactive)
O=C1OCC(c2ccc(Cl)cc2)=C1Cl	29.2 µM (inactive)	29.9	33.3 µM (inactive)	17.5 µM (inactive)	32.1 µM (inactive)	25.1 µM (inactive)	28.2 µM (inactive)	29.2 µM (inactive)	25.5 µM (inactive)	18.1 µM (inactive)	16.7 µM (inactive)	22.3 µM (inactive)	35 µM (inactive)	28.8 µM (inactive)	17.1 µM (inactive)	44.7 µM (inactive)	15.6 µM (inactive)	17.7 µM (inactive)	23.2 µM (inactive)	22.9 µM (inactive)

From ChEMBL document CHEMBL1201862, “PubChem BioAssay data set” (2004)
